From patent publication US20160199434A1, “COMPOSITIONS AND METHODS FOR MODULATING DNA METHYLATION” (OHIO STATE INNOVATION FOUNDATION, priority 2013, published 2016)

How the values were obtained:
[1] = test system: DNMT-1; experiment: DNMT-1 transcription in H1703 lung cancer cells; format: cell-based, human; details: H1703 cells in vitro, dose-dependent (FIG. 10A)
Description: (§1) In FIG. 10A, AKB-6899 inhibited DNMT-1, DNMT-3a, and DNMT-3b transcription in a dose-dependent manner in human squamous cell carcinoma lung cancer cells (H1703), in vitro. The DMSO-treated DNMT mRNAs are over 1.0, meaning the level of expression is higher than the housekeeping control gene, CAP1. In FIG. 10B, AKB-6899 inhibited DNMT-3a and DNMT-3b transcription in human adenocarcinoma lung cancer cells (A549). The DMSO-treated DNMT mRNAs are under 1.0, meaning the level of expression is lower than the housekeeping control gene, CAP1.

[2] = test system: DNMT-3a; experiment: DNMT-3a transcription in H1703 lung cancer cells; format: cell-based, human; details: H1703 cells in vitro, dose-dependent (FIG. 10A)
Description: as §1

[3] = test system: DNMT-3a; experiment: DNMT-3a transcription in A549 lung cancer cells; format: cell-based, human; details: A549 cells (FIG. 10B)
Description: as §1

[4] = test system: DNMT-1; experiment: DNMT-1 mRNA expression in lungs of normal mice after systemic administration; format: in vivo, mouse; details: i.p. 17.5 mg/kg three times per week for three weeks, vs DMSO
Procedure: (§2) FIGS. 14A-14C show the effects of systemic administration of AKB-6899. Mice were treated three times per week for three weeks with either i.p. AKB-6899 or i.p. DMSO. The lungs were removed and assayed to determine DNMT mRNA expression, percent CpG methylation, and fold change in mRNA. […] The data was standardized to 1.0 by the DMSO levels of the respective gene expression, (n=4 lungs per condition).

[5] = test system: DNMT-3a; experiment: DNMT-3a mRNA expression in lungs of normal mice after systemic administration; format: in vivo, mouse; details: i.p. 17.5 mg/kg three times per week for three weeks, vs DMSO
Procedure: as §2

[6] = test system: DNMT-3b; experiment: DNMT-3b mRNA expression in lungs of normal mice after systemic administration; format: in vivo, mouse; details: i.p. 17.5 mg/kg three times per week for three weeks, vs DMSO
Procedure: as §2

[7] = test system: DSP promoter; experiment: CpG methylation of DSP promoter in lungs of normal mice; format: in vivo, mouse; details: i.p., three weeks (FIG. 14B)
Procedure: as §2

[8] = test system: RASSF1 mRNA; experiment: RASSF1 mRNA expression in lungs of normal mice; format: in vivo, mouse; details: i.p., three weeks (FIG. 14C)
Procedure: as §2

[9] = test system: MDA-MB-231 human breast cancer cells; experiment: RNAseq of microRNAs and snoRNAs in MDA-MB-231 cancer cells; format: cell-based; details: MDA-MB-231 cells, compared to DMSO-treated cells
Procedure: The expression of various microRNAs and snoRNAs was evaluated following administration of AKB-6899 to MDA-MB-231 human breast cancer cells. In these cancer cells, AKB-6899 increased expression of several microRNAs, some of which target methylation regulators such as the DNMTs. AKB-6899 also regulated about 20 snoRNAs, some of which are known to guide methylation. Finally, the analysis identified over sixty (60) RNA transcripts in the AKB-6899 treated cancer cells, which transcriptions are yet to annotated. The AKB-6899 treated breast cancer cells were compared to DMSO-treated cancer cells.

O=C(O)CNC(=O)c1ncc(-c2cccc(F)c2)cc1O [AKB-6899, {[5-(3-Fluorophenyl)-3-hydroxypyridine-2-carbonyl]amino}acetic acid]
inhibited: DNMT-1 transcription [1] | DNMT-3a transcription [2] | DNMT-3a transcription [3] | DNMT-1 expression in lungs [4] | DNMT-3a expression in lungs [5] | DNMT-3b expression in lungs [6]
demethylated: methylation of DSP promoter in lungs [7]
increased: RASSF1 mRNA expression in lungs [8] | expression of microRNAs [9]
